From patent publication EP0946579B1, “NOVEL ERYTHROMYCIN DERIVATIVES, METHOD FOR PREPARING THEM AND THEIR USE AS MEDICINE” (Aventis Pharma S.A., priority 1996, dated 1998) come the findings set out here.

Converted amounts (≈) assume the structure as drawn. Some results are limits rather than exact numbers.

What all share (format): cell-based
Experiment [1] relates to Streptococcus pyogenes groupe A 02A1UC1. Put plainly: Dilution method in liquid medium (MIC). Particulars: incubation 24 h at 37°C, read-out: concentrations minimales inhibitrices (C.M.I.). How it is done: (§1) Méthode des dilutions en milieu liquide
(§2) On a préparé une série de tubes dans lesquels on répartit une même quantité de milieu nutritif stérile. On distribue dans chaque tube des quantités croissantes du produit à étudier, puis chaque tube est ensemencé avec une souche bactérienne. Après incubation de vingt-quatre heures à l'étuve à 37°C, l'inhibition de la croissance est appréciée par transillumination de ce qui permet de déterminer les concentrations minimales inhibitrices (C.M.I.) exprimées en microgrammes/cm^3.

The subject of experiment [2] is Streptococcus agalactiae groupe B 02B1SJ1. Put plainly: Dilution method in liquid medium (MIC). Particulars: incubation 24 h at 37°C, read-out: concentrations minimales inhibitrices (C.M.I.). How it is done:
as §1, §2

For experiment [3], the system named is Staphylococcus aureus 011G025I. Put plainly: Dilution method in liquid medium (MIC). Particulars: incubation 24 h at 37°C, read-out: concentrations minimales inhibitrices (C.M.I.). How it is done:
as §1, §2

For experiment [4], the system named is Streptococcus mitis 02mitCB1. Put plainly: Dilution method in liquid medium (MIC). Particulars: incubation 24 h at 37°C, read-out: concentrations minimales inhibitrices (C.M.I.). How it is done:
as §1, §2

In experiment [5] the test system is Staphylococcus epidermidis 012GO11I. Put plainly: Dilution method in liquid medium (MIC). Particulars: incubation 24 h at 37°C, read-out: concentrations minimales inhibitrices (C.M.I.). How it is done:
as §1, §2

Experiment [6] has as its system Streptococcus agalactiae groupe B 02B1HT1. Put plainly: Dilution method in liquid medium (MIC). Particulars: incubation 24 h at 37°C, read-out: concentrations minimales inhibitrices (C.M.I.). The method, then:
as §1, §2

Experiment [7] deals with Streptococcus pneumoniae 032UC1. Put plainly: Dilution method in liquid medium (MIC). Particulars: incubation 24 h at 37°C, read-out: concentrations minimales inhibitrices (C.M.I.). How it is done: as §1, §2
The subject of experiment [8] is Staphylococcus aureus 011UC4. Put plainly: Dilution method in liquid medium (MIC). Particulars: incubation 24 h at 37°C, read-out: concentrations minimales inhibitrices (C.M.I.). How it is done:
as §1, §2

Experiment [9] relates to Streptococcus sp groupe G 02G0GR5. Put plainly: Dilution method in liquid medium (MIC). Particulars: incubation 24 h at 37°C, read-out: concentrations minimales inhibitrices (C.M.I.). The method, then: as §1, §2
Experiment [10] deals with Streptococcus faecalis groupe D 02D2UC1. Put plainly: Dilution method in liquid medium (MIC). Particulars: Enterococcus faecalis, incubation 24 h at 37°C, read-out: concentrations minimales inhibitrices (C.M.I.). How it is done:
as §1, §2

Experiment [11] relates to Streptococcus mitis 02mitGR16I. Put plainly: Dilution method in liquid medium (MIC). Particulars: incubation 24 h at 37°C, read-out: concentrations minimales inhibitrices (C.M.I.). How it is done: as §1, §2
Experiment [12] deals with Streptococcus faecium groupe D 02D3HT1. Put plainly: Dilution method in liquid medium (MIC). Particulars: Enterococcus faecium, incubation 24 h at 37°C, read-out: concentrations minimales inhibitrices (C.M.I.). How it is done: as §1, §2
Experiment [13] deals with Haemophilus Influenzae 351CB12. Put plainly: Antibacterial activity on gram-negative strains. Particulars: result in words. How it is done: as §2
The subject of experiment [14] is Haemophilus Influenzae 351HT3. Put plainly: Antibacterial activity on gram-negative strains. Particulars: result in words. How it is done:
as §2

Experiment [15] deals with Haemophilus Influenzae 351GR6. Put plainly: Antibacterial activity on gram-negative strains. Particulars: result in words. How it is done:
as §2

Experiment [16] relates to Haemophilus Influenzae 351CA1. Put plainly: Antibacterial activity on gram-negative strains. Particulars: result in words. How it is done:
as §2

With `CC[C@H]1OC(=O)[C@H](C)C(=O)[C@H](C)[C@@H](O[C@@H]2O[C@H](C)C[C@H](N(C)C)[C@H]2O)[C@](C)(OC)C[C@@H](C)C(=O)[C@H](C)[C@H]2N(COCCn3cnc(-c4cccnc4)c3)C(=O)O[C@]12C` [Ex. 2], the MIC was not above 0.02 µg/mL in [1]; 0.08 µg/mL (≈ 0.0983 µM) in experiment [2]; 0.08 µg/mL (≈ 0.0983 µM) in experiment [3]; not above 0.02 µg/mL in experiment [4]; 0.08 µg/mL (≈ 0.0983 µM) in experiment [5]; not above 0.02 µg/mL in experiment [6]. For the same compound, the MIC was 0.02 µg/mL (≈ 0.0246 µM) in experiment [7]; 0.08 µg/mL (≈ 0.0983 µM) in [8]; not above 0.02 µg/mL in [9]; not above 0.02 µg/mL in experiment [10]; not above 0.02 µg/mL in experiment [11]; not above 0.02 µg/mL in experiment [12].
With `CC[C@H]1OC(=O)[C@H](C)C(=O)[C@H](C)[C@@H](O[C@@H]2O[C@H](C)C[C@H](N(C)C)[C@H]2O)[C@](C)(OC)C[C@@H](C)C(=O)[C@H](C)[C@H]2N(COCCc3ccccc3)C(=O)O[C@]12C` [Ex. 3, 11,12-didéoxy-3-de[(2,6-didéoxy-3-C-méthyl-3-O-méthyl-alpha-L-ribo-hexopyranosyl)oxy]-6-O-méthyl-3-oxo-12,11-[oxycarbonyl[[(2-phényléthoxy)méthyl]imino]]-érythromycine], the MIC in experiment [1] was not above 0.02 µg/mL; in [2], 0.04 µg/mL (≈ 0.0536 µM); in [3], 0.15 µg/mL (≈ 0.201 µM); in experiment [4] it was not above 0.02 µg/mL; in experiment [5], 0.08 µg/mL (≈ 0.107 µM); in experiment [6], not above 0.02 µg/mL. Further, the MIC in experiment [7] was not above 0.02 µg/mL; in experiment [8] it was 0.04 µg/mL (≈ 0.0536 µM); in [9], not above 0.02 µg/mL; in experiment [10], not above 0.04 µg/mL; in experiment [11] it was not above 0.02 µg/mL; in [12], not above 0.02 µg/mL.
Take `CC[C@H]1OC(=O)[C@H](C)C(=O)[C@H](C)[C@@H](O[C@@H]2O[C@H](C)C[C@H](N(C)C)[C@H]2O)[C@](C)(OC)C[C@@H](C)C(=O)[C@H](C)[C@H]2N(COCCOC)C(=O)O[C@]12C` [exemple 1, 11,12-didéoxy-3-de[(2,6-didéoxy-3-C-méthyl-3-O-méthyl-alpha-L-ribo-hexopyranosyl)oxy]-6-O-méthyl-3-oxo-12,11-[oxycarbonyl[[(2-méthoxyéthoxy)méthyl]imino]]-érythromycine]: the “activité sur les souches bactériennes à gram⊖” value in [13], in experiment [14], in [15] and in experiment [16] was “activité intéressante” in each case.
